In brackets after ≈: the same amount, converted by molar mass. Structures can show the parent of a compound that is named as a salt. Where two headings read alike, the source gives them in different places.
Columns and labels:
[1] = test system: Pseudomonas aeruginosa; test: microbe, parasite or virus in culture; conditions: 24 h
[2] = test system: Salmonella typhi murium and Proteus vulgaris; test: In vivo effectivity in artificially infected mice (protection test); conditions: for living animal / group 1st day / living animal / group 3rd day: groups of 5 infected mice; for ED50: sc
[3] = test system: Escherichia coli K12; test: MIC determination (antibacterial activity in vitro); format: cell-based; conditions: after 24 hours
[4] = test system: Escherichia coli 6R; test: as above; format: cell-based; conditions: 24 h
[5] = test system: Escherichia coli poliresistens; test: as above; format: cell-based; conditions: 24 h
[6] = test system: Escherichia coli R-222; test: as above; format: cell-based; conditions: R222, 24 h
[7] = test system: Escherichia coli R-15; test: as above; format: cell-based; conditions: R15, after 24 hours
[8] = test system: Klebsiella sp. ATCC 10031; test: as above; format: cell-based; conditions: ATCC10031, after 24 hours
[9] = test system: Proteus vulgaris XL; test: as above; format: cell-based; conditions: after 24 hours
[10] = test system: Pseudomonas pyocyanea NTCT 10.490; test: as above; format: cell-based; conditions: Pseudomonas aeruginosa, NTCT10.490, after 24 hours
Procedure: The MIC values expressed in mcg./mi. of SZMFO 110 after 24 hours are contained in Table 1.

[11] = test system: Salmonella typhi murium; test: as above; format: cell-based; conditions: Salmonella enterica, 24 h
[12] = test system: Shigella sonnei; test: as above; format: cell-based; conditions: after 24 hours
[13] = test system: Bacillus subtilis ATCC 6633; test: as above; format: cell-based; conditions: ATCC6633, after 24 hours
[14] = test system: Staphylococcus aureus 1110; test: as above; format: cell-based; conditions: after 24 hours
[15] = test system: Staphylococcus aureus 53; test: as above; format: cell-based; conditions: after 24 hours
[16] = test system: Staphylococcus aureus Smith; test: as above; format: cell-based; conditions: after 24 hours
[17] = test system: Staphylococcus epidermidis A CC I-12228; test: as above; format: cell-based; conditions: ACCI12228, after 24 hours
[18] = test system: Streptococcus haemolyticus Pneumo; test: as above; format: cell-based; conditions: after 24 hours
[19] = test system: Streptococcus haemolyticus A118; test: as above; format: cell-based; conditions: after 24 hours
[20] = test system: Streptococcus haemolyticus Robb; test: as above; format: cell-based; conditions: after 24 hours
[21] = test system: Clostridium perfringens Cp.; test: microbe, parasite or virus in culture; format: cell-based; conditions: 24 h

Row | SMILES | MIC [1] [µg/mL] | living animal / group 1st day ([2]; 0.2 mg./kg. subcutaneously) | living animal / group 3rd day ([2]; 0.2 mg./kg. subcutaneously) | living animal / group 1st day ([2]; 1 mg./kg. subcutaneously) | living animal / group 3rd day ([2]; 1 mg./kg. subcutaneously) | living animal / group 1st day ([2]; 5 mg./kg. subcutaneously) | living animal / group 3rd day ([2]; 5 mg./kg. subcutaneously) | living animal / group 1st day ([2]; 25 mg./kg. subcutaneously) | living animal / group 3rd day ([2]; 25 mg./kg. subcutaneously) | living animal / group 1st day ([2]; 100 mg./kg. subcutaneously) | living animal / group 3rd day ([2]; 100 mg./kg. subcutaneously) | ED50 ([2]; 24 h, read-out: ED50 1st day) [mg/kg] | ED50 ([2]; 72 h, read-out: ED50 3rd day) [mg/kg] | further results
1 | CC(C)(ON=C(C(=O)NC1C(=O)N2C(C(=O)[O-])=C(C[n+]3ccccc3)CSC12)c1csc(N)n1)C(=O)O [Ceftazimide, 1-//(6R,7R)-7-/2-(2-amino-4-thiazolyl)glyoxylamido/--2-carboxy-8-oxo-5-thia-1-azabicyclo/4.2.0/oct-2-ene--3-yl/methyl/pyridinium hydroxide inner salt 7^2-(Z)-/0-(1-carboxy-1-methylethyl)oxime/] | 4 | – | – | – | – | – | – | – | – | – | – | – | – | –
2 | CO/N=C(\C(=O)N[C@@H]1C(=O)N2C(C(=O)O)=C(CSc3nnnn3C)CS[C@H]12)c1csc(N)n1 [Cefmenoxime, (6R,7R)-7-/2-(2-amino-4-thiazolyl)glyoxylamido/-3-//(1-methyl-1H-tetrazol-5-yl)thio/methyl/-8-oxo-5-thia--1-azabicyclo/4.2.0/oct-2-ene-2-carboxylic acid 7^2-(Z)-(O-methyloxime)] | 64 (≈ 125 µM) | – | – | – | – | – | – | – | – | – | – | – | – | –
3 | CCN1CCN(C(=O)N[C@@H](C(=O)N[C@@H]2C(=O)N3C(C(=O)O)=C(CSc4nnnn4C)CS[C@H]23)c2ccc(O)cc2)C(=O)C1=O [Cefoperazone, 7-[D-(-)-α-(4-ethyl-2,3-dioxo-1-piperazinecarboxamido)-α-(4-hydroxyphenyl)-acetamido]-3-[[(1-methyl-1H-tetranol-5-yl)thio]methyl]-ceph-3-em-4-carboxylic acid, reference compound] | 8 (≈ 12.4 µM) | 1 | 1 | 4 | 1 | 5 | 3 | 4 | 4 | 5 | 4 | 0.44 | 3.7 | –
4 | CO/N=C(\C(=O)N[C@@H]1C(=O)N2C(C(=O)O)=CCS[C@H]12)c1csc(N)n1 [Ceftizoxime, (6R,7R)-7-/2-(2-amino-4-thiazolyl)glyoxylamido/-8--oxo-5-thia-l-azabicyclo/4.2.0/oct-2-ene-2-carboxylic acid 7^2-(Z)-(0-methyloxime)] | 64 (≈ 167 µM) | – | – | – | – | – | – | – | – | – | – | – | – | –
5 | CO/N=C(\C(=O)N[C@@H]1C(=O)N2C(C(=O)O)=C(COC(C)=O)CS[C@H]12)c1csc(N)n1 [Cefotaxime, 7-[2-(2-amino-4-thiazolyl)-2-methoxy-iminoacetamido]-cephalosporanic acid] | 32 (≈ 70.3 µM) | – | – | – | – | – | – | – | – | – | – | – | – | –
6 | CON=C(C(=O)NC1C(=O)N2C(C(=O)O)=C(CSc3nnc(S)s3)CSC12)c1csc(N)n1 (stereo not drawn) [SZMFO 110, 7β-[2-(2-aminothiazol-4-yl)-(Z)-2-methoxyimino-acetamido]-3-[(2-mercapto-1.3.4-thiadiazol-5-yl)thiomethyl]-ceph-3-em-4-carboxylic acid] | 0.31 (≈ 0.568 µM) | 0 | 0 | 4 | 4 | 5 | 4 | 5 | 5 | 5 | 4 | 0.62 | 0.62 | MIC [3]: 0.03 µg/mL (≈ 0.055 µM); MIC [4]: 0.25 µg/mL (≈ 0.458 µM); MIC [5]: 0.16 µg/mL (≈ 0.293 µM); MIC [6]: 0.03 µg/mL (≈ 0.055 µM); MIC [7]: 0.16 µg/mL (≈ 0.293 µM); MIC [8]: 7 ng/mL (≈ 0.0128 µM); MIC [9]: 7 ng/mL (≈ 0.0128 µM); MIC [10]: 0.31 µg/mL (≈ 0.568 µM); MIC [11]: 0.06 µg/mL (≈ 0.11 µM); MIC [12]: 0.06 µg/mL (≈ 0.11 µM); MIC [13]: 0.08 µg/mL (≈ 0.147 µM); MIC [14]: 6.2 µg/mL (≈ 11.4 µM); MIC [15]: 1.6 µg/mL (≈ 2.93 µM); MIC [16]: 1.25 µg/mL (≈ 2.29 µM); MIC [17]: 0.6 µg/mL (≈ 1.1 µM); MIC [18]: 0.03 µg/mL (≈ 0.055 µM); MIC [19]: 0.03 µg/mL (≈ 0.055 µM); MIC [20]: 0.03 µg/mL (≈ 0.055 µM); MIC [21]: 4 ng/mL (≈ 0.00733 µM)
